Patent US6291463A, “1-(Benzothiazol-2-yl)-4-(1-phenylmethyl) piperazines: dopamine receptor subtype specific ligands” (Neurogen Corporation, priority 1999, dated 2001)
Where a name gives a salt, the structure may show the parent alone.

Columns and labels:
[1] = target: D2 receptors (Chlorocebus aethiops, UniProt P52702); assay: D2 receptor binding (displacement of 3H-YM 09151-2); set-up: species or system African Green monkey; details: COS cells with recombinant D2 receptors; 0.5 nM 3H-YM 09151-2; Table 2
D2 receptors, sequence (P52702 whole entry): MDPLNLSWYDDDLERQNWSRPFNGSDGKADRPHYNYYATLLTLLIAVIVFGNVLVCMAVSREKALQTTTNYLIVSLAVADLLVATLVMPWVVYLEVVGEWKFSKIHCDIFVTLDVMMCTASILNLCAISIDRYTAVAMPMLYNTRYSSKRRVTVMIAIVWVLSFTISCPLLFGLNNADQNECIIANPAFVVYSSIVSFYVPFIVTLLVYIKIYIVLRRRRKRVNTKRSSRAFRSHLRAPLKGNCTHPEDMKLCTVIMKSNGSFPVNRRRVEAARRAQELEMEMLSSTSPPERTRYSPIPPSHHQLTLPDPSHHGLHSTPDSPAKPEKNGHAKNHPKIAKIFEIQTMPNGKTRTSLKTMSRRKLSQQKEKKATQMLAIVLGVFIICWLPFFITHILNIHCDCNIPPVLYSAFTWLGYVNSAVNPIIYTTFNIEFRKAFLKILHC
Protocol: (§1) Assay for D2 and D4 Receptor Binding Activity
(§2) Pellets of COS cells containing recombinantly produced D2 or D4 receptors from African Green monkey were used for the assays. The sample is homogenized in 100 volumes (w/vol) of 0.05 M Tris HCl buffer at 4° C. and pH 7.4. The sample is then centrifuged at 30,000×g and resuspended and rehomogenized. The sample is then centrifuged as described and the final tissue sample is frozen until use. The tissue is resuspended 1:20 (wt/vol) in 0.05 M Tris HCl buffer containing 100 mM NaCl.
(§3) Incubations are carried out at […] and contain 0.4 ml of tissue sample, 0.5 nM ^3 H-YM 09151-2 (Nemonapride, cis-5-Chloro-2-methoxy-4-(methylamino)-N-(2-methyl-2-(phenylmethyl)-3-pyrroli-dinyl)benzamide) and the compound of interest in a total incubation of 1.0 ml. Nonspecific binding is defined as that binding found in the presence of 1 mM spiperone; without further additions, nonspecific binding is less than 20% of total binding.

[2] = target: D4 receptors; assay: D4 receptor binding (displacement of 3H-YM 09151-2); set-up: species or system African Green monkey; details: COS cells with recombinant D4 receptors; 0.5 nM 3H-YM 09151-2; Table 2
Protocol: as §1, §2, §3

Row | Ki [1] [nM] | Ki [2] [nM] | SMILES
1 | > 4000 | 14 | Clc1ccc(CN2CCN(c3nc4ccccc4s3)CC2)cc1 [Compound 1A, 1-(Benzothiazol-2-yl)-4-(1-[4-chlorophenyl]methyl)piperazine]
2 | 3510 | 25 | Cc1ccc(CN2CCN(c3nc4ccccc4s3)CC2)cc1 [Compound 2A, 1-(benzothiazol-2-yl)-4-(1-[4-methylphenyl]methyl)piperazine oxalate]
3 | 3510 | 76 | c1ccc2cc(CN3CCN(c4nc5ccccc5s4)CC3)ccc2c1 [Compound 4A, 1-(benzothiazol-2-yl)-4-(1-[2-naphthyl]methyl)piperazine oxalate]
